row,melting point,Structure (SMILES)
1,172 to 173 °C,"COc1cc(S[C@H](C[C@H](N)CO)c2ccccc2)c(C#N)cn1 [Example 10, 4-[[(1R,3S)-3-Amino-4-hydroxy-1-phenylbutyl-]thio]-6-methoxy-3-pyridinecarbonitrile (E)-butenedioate]"
2,221 to 223 °C,"COc1cc(S[C@H](C[C@@H](N)CO)c2ccccc2)c(C#N)cn1.O=C(O)/C=C/C(=O)O [Example 11, 4-[[(1R,3R)-3-Amino-4-hydroxy-1-phenylbutyl]thio]-6-methoxy-3-pyridinecarbonitrile (E)-butenedioate]"
3,162.5 to 163 °C,"COc1cc(S[C@@H](C[C@@H](N)CO)c2ccccc2)c(C#N)cn1.O=C(O)/C=C/C(=O)O [Example 12, 4-[[(1S,3R)-3-Amino-4-hydroxy-1-phenylbutyl]thio]-6-methoxy-3-pyridinecarbonitrile, (E)-butenedioate]"
4,213 to 228 °C,"COc1cc(S[C@@H](C[C@H](N)CO)c2ccccc2)c(C#N)cn1.O=C(O)/C=C/C(=O)O [Example 13, 4-[[(1S,3S)-3-Amino-4-hydroxy-1-phenylbutyl]thio]-6-methoxy-3-pyridinecarbonitrile (E)-butenedioate]"
5,144 to 146 °C,"N#Cc1cnc(OC(F)F)cc1S[C@H](C[C@H](N)CO)c1ccccc1.O=C(O)/C=C/C(=O)O [Example 14, 4-[[(1R,3S)-3-Amino-4-hydroxy-1-phenylbutyl]thio]-6-(difluoromethoxy)-3-pyridinecarbonitrile (E)-butenedioate]"
6,78 °C,"CC(=O)c1ccc(C#N)c(S[C@H](C[C@H](N)CO)c2ccccc2)n1.Cl [Example 20, 6-Acetyl-2-[[(1R,3S)-3-amino-4-hydroxy-1-phenylbutyl]thio]-3-pyridinecarbonitrile Hydrochloride]"
7,206 to 208 °C,"CNc1cc(S[C@H](C[C@H](N)CO)c2ccccc2)c(C#N)cn1.Cl.Cl [Example 26, 4-[[(1R,3S)-3-Amino-4-hydroxy-1-phenylbutyl]thio]-6-(methylamino)-3-pyridinecarbonitrile dihydrochloride]"
8,178 to 180 °C,"COc1cc(S[C@H](C[C@H](N)CO)c2ccccc2)c(Br)cn1 [Example 27, (β^1S,β^1R)-β-Amino-δ-[(5-bromo-2-methoxy-4-pyridinyl)thio]-benzenebutanol (E)-2-butenedioate]"
9,191 to 193 °C,"COc1cc(S[C@H](C[C@H](N)CO)c2ccccc2)c(Cl)cn1 [Example 28, (β^1S,β^1R) β-Amino-δ-[(5-chloro-2-methoxy-4-pyridinyl)thio]-benzenebutanol (E)-2-butenedioate]"
10,169.5 to 171.5 °C,"CCOc1cc(S[C@H](C[C@H](N)CO)c2ccccc2)c(C#N)cn1 [Example 29, 4-[[(1R,3S)-3-Amino-4-hydroxy-1-phenylbutyl]thio]-6-ethoxy-3-pyridinecarbonitrile. (E)-butenedioate]"
11,147 to 149 °C,"N#Cc1ncc(C(F)(F)F)cc1S[C@H](C[C@H](N)CO)c1ccccc1.O=C(O)C(=O)O [Example 30, 3-[[(1R,3S)-3-Amino-4-hydroxy-1-phenylbutyl]thio]-5-(trifluoromethyl)-2-pyridinecarbonitrile ethanedioate]"
12,179 to 185 °C,"COc1cc(S[C@H](C[C@H](N)CO)c2ccccc2F)c(C#N)cn1.O=C(O)C(=O)O [Example 35, 4-[[(1R,3S)-3-Amino-1-(2-fluorophenyl)-4-hydroxybutyl]thio]-6-methoxy-3-pyridinecarbonitrile ethanedioate]"
13,142 to 144 °C,"N#Cc1ccc(S[C@H](C[C@H](N)CO)c2ccccc2)c(Cl)c1.O=C(O)C(=O)O [Example 43, 4-[[(1R,3S)-3-Amino-4-hydroxy-1-phenylbutyl]thio]-3-chlorobenzonitrile ethanedioate]"
14,278 to 280 °C,"Cl.Cl.N#Cc1ccc(Br)cc1S[C@H](C[C@H](N)CO)c1cccnc1 [Example 58, 2-[[(1R,3S)-3-Amino-4-hydroxy-1-(3-pyridyl)butyl]thio]-4-bromobenzonitrile dihydrochloride]"

# The next lines start with the compound.
row,Structure (SMILES),melting point
1,"N#Cc1ccc(CO)nc1S[C@H](C[C@H](N)CO)c1ccccc1.O=C(O)/C=C/C(=O)O [Example 21, 2-[[(1R,3S)-3-Amino-4-hydroxy-1-phenylbutyl]thio]-6-(hydroxymethyl)-3-pyridinecarbonitrile (E)-butenedioate]",147 to 149 °C
2,"N#Cc1cccnc1S[C@H](C[C@H](N)CO)c1ccccc1.O=C(O)/C=C/C(=O)O [Example 22, 2-[[(1R,3S)-3-Amino-4-hydroxy-1-phenylbutyl]thio]-3-pyridinecarbonitrile (E)-butenedioate]",67 to 69 °C
3,"N#Cc1ccc(C(F)(F)F)nc1O[C@H](C[C@H](N)CO)c1ccc(F)cc1.O=C(O)C(=O)O [Example 36, 2-[[(1R,3S)-3-Amino-1-(4-fluorophenyl)-4-hydroxybutyl]oxy]-6-trifluoromethyl-3-pyridinecarbonitrile ethanedioate]",109 to 114 °C
4,"CCN[C@H](CO)C[C@@H](Oc1cc(Cl)c(F)cc1C#N)c1nccs1.O=C(O)C(=O)O [Example 44, 4-Chloro-2-[[(1R,3S)-3-(ethylamino)-4-hydroxy-1-(2-thiazolyl)butyl]oxy]-5-fluoro-benzonitrile ethanedioate salt]",55 to 80 °C
5,"N#Cc1cc(F)ccc1O[C@H](C[C@H](N)CO)c1cncs1.O=C(O)/C=C/C(=O)O [Example 45, 2-[[(1R,3S)-3-Amino-4-hydroxy-1-(5-thiazolyl)butyl]oxy]-5-fluoro-benzonitrile (2E)-2-butenedioate]",163 to 165 °C
6,"CC(C)(O)[C@@H](N)C[C@@H](Oc1cc(Cl)c(F)cc1C#N)c1ccccc1.O=C(O)C(=O)O [Example 47, 2-[[(1R,3S)-3-Amino-4-hydroxy-4-methyl-1-phenylpentyl]oxy]-4-chloro-5-fluoro benzonitrile ethanedioate]",80 °C
7,"CCC[C@@H](C[C@H](N)CO)Oc1cc(Cl)c(F)cc1C#N.O=C(O)C(=O)O [Example 48, 2-[[(1S,3S)-3-Amino-4-hydroxy-1-propylbutyl]oxy]-4-chloro-5-fluorobenzonitrile ethanedioate]",171 to 172 °C
8,"Cc1ccc(C#N)c(SC(C[C@H](N)CO)c2ccno2)n1.O=C(O)/C=C/C(=O)O (stereo partly drawn) [Example 51, 2-[[(3S)-3-Amino-4-hydroxy-1-(5-isoxazolyl)butyl]thio]-6-methyl-3-pyridinecarbonitrile (E)-butenedioate]",150 to 152 °C
9,"N#Cc1ccc(C(F)(F)F)nc1OC(C[C@H](N)CO)c1ccno1.O=C(O)/C=C/C(=O)O (stereo partly drawn) [Example 52, 2-[[(3S)-3-Amino-4-hydroxy-1-(5-isoxazolyl)butyl]oxy]-6-(trifluoromethyl)-3-pyridinecarbonitrile, (E)-butenedioate]",150 to 152 °C
10,"N#Cc1cc(F)c(Cl)cc1O[C@H](C[C@H](N)CO)c1ccsc1.O=C(O)C(=O)O [Example 54, 2-[[3-(3S)-Amino-4-hydroxy-1(R)-(3-thienyl)butyl]oxy]-4-chloro-5-fluorobenzonitrile ethanedioate]",111 to 115 °C
11,"Cl.Cl.N#Cc1ccc(C(F)(F)F)cc1S[C@H](C[C@H](N)CO)c1cccnc1 [Example 55, 2-[[(1R,3S)-3-Amino-4-hydroxy-1-(3-pyridinyl)butyl]thio]-4-(trifluoromethyl)benzonitrile dihydrochloride]",238 to 240 °C
12,"Cl.N#Cc1ccc(Cl)cc1S[C@H](C[C@H](N)CO)c1cncnc1 [Example 56, 2-[[(1R,3S)-3-Amino-4-hydroxy-1-(5-pyrimidyl)butyl]thio]-4-chlorobenzonitrile hydrochloride]",120 to 130 °C
13,"Cl.Cl.N#Cc1cc(F)c(Cl)cc1S[C@H](C[C@H](N)CO)c1cccnc1 [Example 57, 2-[[(1R,3S)-3-Amino-4-hydroxy-1-(3-pyridinyl)butyl]thio]-4-chloro-5-fluorobenzonitrile dihydrochloride]",252 to 255 °C
14,"Cc1nc(O[C@H](C[C@H](N)CO)c2nccs2)c(C#N)cc1F.Cl [Example 59, 2-[[(1R,3S)-3-Amino-4-hydroxy-1-(2-thiazolyl)butyl]oxy]-5-fluoro-6-methyl-3-pyridinecarbonitrile hydrochloride]",148 to 150 °C
15,"COc1cc(S[C@H](C[C@H](N)CO)c2sccc2F)c(C#N)cn1.O=C(O)/C=C/C(=O)O [Example 60, 4-[[(1R,3S)-3-Amino-1-(3-fluoro-2-thienyl)-4-hydroxybutyl]thio]-6-methoxy-3-pyridinecarbonitrile (E)-butenedioate salt]",177 to 178 °C
16,"N#Cc1cc(F)c(Cl)cc1O[C@H](C[C@H](N)CO)c1scnc1Cl.O=C(O)/C=C/C(=O)O [Example 61, 2-[[(1R,3S)-3-Amino-1-(4-chloro-5-thiazolyl)-4-hydroxybutyl]oxy]-4-chloro-5-fluorobenzonitrile (E)-butenedioate salt]",177 to 178 °C
